{
  "source": "patent US4284653A",
  "about": "“Process for handling and processing fish meat” (Nippon Suisan Kabushiki Kaisha, priority 1979, dated 1981)",
  "key": {"[1]": {"system": "protease of hake flesh with jellied condition", "assay": "Inhibition of protease in aqueous extract of hake meat with jellied condition (urea-denatured hemoglobin substrate, Folin method)", "type": "biochemical", "protocol": "North Pacific hake (Merluccius products) on which the sporosa were parasitic was minced and homogenized with two volumes of water. After standing for 2 hours, the homogenate was centrifuged (15,000 xg, 20 minutes) under cooling condition, and the supernatant was dialyzed against tap water for 24 hours. The residual liquid remaining after the dialysis was heated at 50° C. for 20 minutes. The resulting precipitate was removed under cooling by centrifuge (15,000 xg, 30 minutes). The supernatant liquid was designated an aqueous extract of fish meat with jellied condition.\nSeparately, 3 ml of Mclvaine buffer solution (pH=3) was added to 1 ml of urea-denatured bovine hemoglobin (at a concentration of 4%) to prepare a substrate solution. 1 ml of a 1:1 mixture of the above obtained extract and a solution of various TPI was added to the above prepared substrate solution. The resulting mixture was incubated at 40° C. for 5 minutes. Thereafter, 5 ml of a 5% trichloroacetic acid was added to the mixture to allow the reaction to stop. The reaction mixture was left to stand for 30 minutes at room temperature. Then, the mixture was filtered through a filter paper (Toyo filter paper No. 5C). 1 ml of the filtrate was colorometrically determined at a wave length of 660 mμ by a Folin method.\nThe protease inhibition ratio of various proteolytic activity of the TPI is expressed as the […] relative activity with respect to 100 of the activity of an extract prepared by adding water instead of the TPI solution. That is, [formula]"}, "[2]": {"system": "proteolytic enzyme of Pacific hake meat with jellied condition", "assay": "Proteolytic enzyme activity of treated fish meat, Pacific hake", "type": "biochemical", "conditions": "Example 11; soaked 10 minutes in 200 l cold water with 100 g sodium hydrogensulfite; control 3,200 units", "text": "(§1) The quantity of the TPI added generally also depends upon the concentration of a proteolytic enzyme of fish meat contaminated with sporozoa. For example, North Pacific hake on which sporozoa are parasitic has a proteolytic enzyme activity of from a low level up to 30,000 units.\nThe resulting fish was subjected to a fillet making machine to obtain skinless fillets. […] Each fillet sample was washed with water containing 0.05% of sodium sulfite. […]\nThen, fish meat was collected from the thawed hake by means of a fish meat separator. […] The fish meat was soaked in cold water in a quantity two times that of the meat and drained, and it was again soaked in cold water in the same quantity and drained to obtain 105 Kg of hydroextracted meat. […]\nThe frozen testing and control kneaded meats thus obtained were thawed and subjected to a model estimation method of elasticity. In testing the elasticity, the kneaded meats are usually formed into a model product of a Japanese style fish meat paste and the model product is evaluated for quality.\n200 Kg of the frozen fillet of the same Pacific hake as that described in Example 9 was thawed. […] Then, the fish meat was soaked in cold water in a quantity two times that of the meat and drained. […] The first portion was soaked in cold water in a quantity two times that of the meat and drained to obtain 50 Kg of hydroextracted meat as a control. […]"}, "[3]": {"system": "proteolytic enzyme of yellowfin sole meat with jellied condition", "assay": "Proteolytic enzyme activity of treated fish meat, yellowfin sole", "type": "biochemical, yellowfin sole (Limanda aspera)", "text": "as §1\nOne hundred North Pacific frozen yellowfin sole containing a large number of spots of jellied condition in their muscles were thawed. These flatfish were gutted and the abdominal pores were washed.\nDuring the dipping, the flatfish were irradiated with supersonic waves having a frequency of 18 KC for 10 minutes by using the same magnetostriction type supersonic wave oscillator as described in Example 2. Thereafter, the flatfish were drained. Then, these fish were dried at 15° C. in a low temperature dryer dehydromaster to obtain dried flatfish with salt.\n350 Kg of the flatfish was headed and gutted and the meat was collected by means of a fish meat separator. […] As described in Example 9, this fish meat was twice soaked in cold water in a quantity two times that of the meat and drained to obtain 130 Kg of hydroextracted meat.\nA solution of 0.6 g of antipain in 1 l of water was added to 60 Kg of each sample of the hydroextracted meat and the mixture was uniformly mixed. 10 Kg of the mixture was packed in a polyethylene bag to obtain a raw kneaded meat. A control was prepared in the same manner except that 1 l of water alone was added.\nThese raw kneaded meats were stored in a refrigerator at a temperature of from 4° to 5° C. for 24 hours. Thereafter, these meats were removed from the refrigerator. Then, 1.5 Kg of sodium chloride, 2.5 Kg of sugar, 4.0 Kg of starch, 1.2 Kg of mirin (sweet sake) and 0.5 Kg of sodium glutamate were added to 50 Kg of each of the raw kneaded meats, and the mixture was ground and formed into \"itatuki-kamaboko\" according to a conventional method."}, "[4]": {"conditions": "concentration 0.02%, 40° C., 5 minutes, pH 3"}, "[5]": {"conditions": "concentration 0.01%, 40° C., 5 minutes, pH 3"}, "[6]": {"conditions": "concentration 0.002%, 40° C., 5 minutes, pH 3"}, "[7]": {"conditions": "aqueous fish meat extract, pH 3, 5 min"}},
  "note": "Starred links: 1 amine or outer side, 2 acyl side, 3 side chain; linkers in the order of their positions; H or OH if unused. Residues, ends and D or L forms follow the SMILES beside them. CO = O=C([*:1])[*:2]",
  "data": [
    {"compound": "O=S([O-])[O-].[Na+].[Na+]", "note": "[sodium sulfite]", "values": [
      {"measurement": "inhibition ratio (%)", "setting": "[1]; [4]", "value": 93.4, "unit": "%"}
    ]},
    {"compound": "O=S([O-])S(=O)(=O)[O-].[Na+].[Na+]", "note": "[sodium metabisulfite]", "values": [
      {"measurement": "inhibition ratio (%)", "setting": "[1]; concentration 0.05%, 40° C., 5 minutes, pH 3", "value": 96.2, "unit": "%"}
    ]},
    {"compound": "O=[N+]([O-])[O-].[K+]", "note": "[potassium nitrate, reference compound]", "values": [
      {"measurement": "inhibition ratio (%)", "setting": "[1]; [5]", "value": -1.4, "unit": "%"}
    ]},
    {"compound": "N.N.O=S(=O)(O)OOS(=O)(=O)O", "note": "[ammonium persulfate]", "values": [
      {"measurement": "inhibition ratio (%)", "setting": "[1]; concentration 0.015%, 40° C., 5 minutes, pH 3", "value": 91.7, "unit": "%"}
    ]},
    {"compound": "[Ca+2].[O-]Cl.[O-]Cl", "note": "[calcium hypochlorite]", "values": [
      {"measurement": "inhibition ratio (%)", "setting": "[1]; [5]", "value": 98.1, "unit": "%"}
    ]},
    {"compound": "O=S([O-])O.[Na+]", "note": "[sodium hydrogen sulfite]", "values": [
      {"measurement": "proteolytic enzyme activity of hydroextracted meat", "setting": "[2]", "value": 840, "unit": "units"},
      {"measurement": "inhibition ratio (%)", "setting": "[1]; [4]", "value": 96.1, "unit": "%"}
    ]},
    {"compound": "OCl", "note": "[hypochlorous acid]", "values": [
      {"measurement": "inhibition ratio (%)", "setting": "[1]; [5]", "value": 88.5, "unit": "%"}
    ]},
    {"compound": "CC(C)[C@H](NC(=O)[C@H](CCCNC(=N)N)NC(=O)N[C@@H](Cc1ccccc1)C(=O)O)C(=O)N[C@H](C=O)CCCNC(=N)N", "note": "[antipain] ({Phe-CO}-Arg-Val-Arg-aldehyde)", "values": [
      {"measurement": "inhibition ratio (%)", "setting": "[1]; [6]", "value": 72.9, "unit": "%"},
      {"measurement": "proteolytic enzyme activity of raw kneaded meat", "setting": "[3]; Example 12, 0.6 g antipain in 1 l water per 60 Kg hydroextracted meat, control 1,140 units", "value": 980, "unit": "units"},
      {"measurement": "proteolytic enzyme activity of ground meat", "setting": "[3]; Example 12, after 24 hours at 4° to 5° C. and grinding with salt, sugar, starch, control 1,080 units", "value": 23, "unit": "units"}
    ]},
    {"compound": "O=C(OOC(=O)c1ccccc1)c1ccccc1", "note": "[benzoyl peroxide]", "values": [
      {"measurement": "inhibition ratio (%)", "setting": "[1]; [5]", "value": 82.3, "unit": "%"}
    ]},
    {"compound": "OCl", "note": "[sodium hypochlorite]", "values": [
      {"measurement": "inhibition ratio (%)", "setting": "[1]; [5]", "value": 87.8, "unit": "%"}
    ]},
    {"compound": "sodium chlorite", "values": [
      {"measurement": "inhibition ratio (%)", "setting": "[1]; [5]", "value": 100.0, "unit": "%"}
    ]},
    {"compound": "N.O.O.O.O.O.O.O.O.O.O.O.O.O=S(=O)([O-])O.O=S(=O)([O-])[O-].[Al+3]", "note": "[ammonium alum]", "values": [
      {"measurement": "inhibition ratio (%)", "setting": "[1]; [5]", "value": 89.8, "unit": "%"}
    ]},
    {"compound": "[O][Cl+][O-]", "note": "[chlorine dioxide]", "values": [
      {"measurement": "inhibition ratio (%)", "setting": "[1]; [5]", "value": 100.0, "unit": "%"}
    ]},
    {"compound": "[K+].[K+].[O]=[Cr](=[O])([O-])[O][Cr](=[O])(=[O])[O-]", "note": "[potassium dichromate, reference compound]", "values": [
      {"measurement": "inhibition of the activity of the protease produced by the sporozoa (in words)", "setting": "[1]", "value": "high inhibition"},
      {"measurement": "inhibition ratio (%)", "setting": "[1]; [7]", "value": 96.1, "unit": "%"}
    ]},
    {"compound": "CC(=O)N[C@@H](CC(C)C)C(=O)N[C@@H](CC(C)C)C(=O)N[C@H](C=O)CCCNC(=N)N", "note": "[leupeptin, reference compound]", "values": [
      {"measurement": "inhibition ratio (%)", "setting": "[1]; [6]", "value": 99.0, "unit": "%"}
    ]},
    {"compound": "O=NO", "note": "[sodium nitrite]", "values": [
      {"measurement": "inhibition ratio (%)", "setting": "[1]; [7]", "value": 90.2, "unit": "%"}
    ]},
    {"compound": "chymostatin [reference compound]", "values": [
      {"measurement": "inhibition ratio (%)", "setting": "[1]; [6]", "value": 97.0, "unit": "%"},
      {"measurement": "proteolytic enzyme activity of dried flatfish with salt whose muscle was softened and partially depressed", "setting": "[3]; Example 7, dipped 2 hours in 10% sodium chloride containing 0.01% chymostatin, supersonic waves 18 KC 10 minutes, muscles had 5,000 units before", "value": 120, "unit": "units"}
    ]},
    {"compound": "OO", "note": "[hydrogen peroxide]", "values": [
      {"measurement": "inhibition ratio (%)", "setting": "[1]; concentration 0.001%, 40° C., 5 minutes, pH 3", "value": 86.8, "unit": "%"},
      {"measurement": "inhibition ratio (%)", "setting": "[1]; [5]", "value": 100.0, "unit": "%"}
    ]},
    {"compound": "[O]=[Ca]", "note": "[calcium oxide]", "values": [
      {"measurement": "inhibition ratio (%)", "setting": "[1]; [5]", "value": 100.0, "unit": "%"}
    ]}
  ]
}
